Source: patent publication US12285509B2, “Glyceryl and glycol acid compounds” (MARY KAY INC., priority 2006, dated 2025)

Assay: UV absorption (UV/Vis spectrometer, standard USP 197U testing procedures)
Format: physicochemical
Description: UV absorption of glyceryl/acid or glycol/acid compounds and compositions containing the same can be determined by UV absorption assays that are generally known to those of ordinary skill in the art.

For `O=C(OCC(O)CO)c1ccccc1O` (centres unmarked) [Glyceryl Mono-Salicylate], the “Molar Absorptivity (λ max 238 nm)” value (λ max 238 nm) was 12065.7 and the “Molar Absorptivity (λ max 307 nm)” value (λ max 307 nm) was 6126.4.
